The values that follow come from PMC5871776, “Opn5L1 is a retinal receptor that behaves as a reverse and self-regenerating photoreceptor” (Nature Communications, 2018).

The structures appear in SMILES notation. Changes are numbered by the printed parent chain.

Test [1] concerns the target T1, Opn5L1NC (Gallus gallus, UniProt B3XZF4, E159K/Q174K, form not given).
T1 construct: gene cOpn5L1; HEK293T, purified in dodecyl maltoside
T1 sequence (B3XZF4 20-310 E159K/Q174K limits assumed): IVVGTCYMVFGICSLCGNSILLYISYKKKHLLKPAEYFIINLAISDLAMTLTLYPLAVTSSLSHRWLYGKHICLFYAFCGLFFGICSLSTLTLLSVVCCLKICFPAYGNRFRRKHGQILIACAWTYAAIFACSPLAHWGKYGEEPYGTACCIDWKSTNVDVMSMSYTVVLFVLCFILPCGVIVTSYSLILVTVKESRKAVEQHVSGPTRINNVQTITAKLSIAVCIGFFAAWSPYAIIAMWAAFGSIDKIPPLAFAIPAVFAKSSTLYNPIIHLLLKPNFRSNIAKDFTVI
As to the kind of experiment: LC-MS of tryptic peptide with retinal oxime at Cys188. The test is classed as binding. The note with it: covalent (light-induced thio-adduct at Cys188); hydroxylamine, irradiation >500 nm.

The target in test [2] is T2, Opn5L1NC (Gallus gallus, UniProt B3XZF4, C170T, form not given).
T2 construct: gene cOpn5L1; HEK293T, purified in dodecyl maltoside
T2 sequence (B3XZF4 20-310 C170T limits assumed): T1 sequence (B3XZF4 20-310 E159K/Q174K limits assumed) with K140E, C151T, K155Q
As to the kind of experiment: absorption spectrum of purified pigment and HPLC of extracted retinal. Type of test: binding. As to conditions: covalent (retinylidene Schiff base); retinal 5 μM added to the cell culture; pH 7.0, 10 °C.

The target in test [3] is T3, Opn5L1 bearing native N- and C- termini (Gallus gallus, UniProt B3XZF4, C170T).
T3 construct: gene cOpn5L1; HEK293T, purified
T3 sequence (B3XZF4 1-441 C170T): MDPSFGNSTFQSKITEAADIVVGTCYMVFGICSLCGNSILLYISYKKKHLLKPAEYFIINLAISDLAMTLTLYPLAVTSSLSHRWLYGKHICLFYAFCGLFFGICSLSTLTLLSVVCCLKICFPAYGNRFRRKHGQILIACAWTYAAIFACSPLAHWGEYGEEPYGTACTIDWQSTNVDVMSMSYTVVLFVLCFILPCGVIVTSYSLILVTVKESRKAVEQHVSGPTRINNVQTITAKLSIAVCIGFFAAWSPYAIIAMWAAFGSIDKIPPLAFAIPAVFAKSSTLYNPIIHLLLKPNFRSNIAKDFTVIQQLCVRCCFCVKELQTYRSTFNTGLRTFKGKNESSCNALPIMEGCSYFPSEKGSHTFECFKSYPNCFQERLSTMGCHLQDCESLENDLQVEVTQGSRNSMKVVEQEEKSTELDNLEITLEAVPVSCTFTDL
The description is as above. As to conditions: covalent (retinylidene Schiff base). Type of test: binding.

Test [4] concerns the target T4, Opn5L1 bearing native N- and C- termini (Gallus gallus, UniProt B3XZF4).
T4 construct: gene cOpn5L1; HEK293T, purified
T4 sequence (B3XZF4 1-441): T3 sequence (B3XZF4 1-441 C170T) with T170C
Described as above. The test is classed as binding. As to conditions: covalent (retinylidene Schiff base).

Test [5] concerns the target T5, Opn5L1NC (Gallus gallus, UniProt B3XZF4).
T5 construct: gene cOpn5L1; HEK293T, purified in dodecyl maltoside
T5 sequence (B3XZF4 20-310 limits assumed): T1 sequence (B3XZF4 20-310 E159K/Q174K limits assumed) with K140E, K155Q
Described as above. As to conditions: covalent (retinylidene Schiff base); 10 μM retinal, 4 °C, 8 h, dark; pH 7.0. Type of test: binding.

Test [6] addresses T6, Opn5L1N (Gallus gallus, UniProt B3XZF4).
T6 construct: gene cOpn5L1; HEK293T membranes
T6 sequence (B3XZF4 20-441 limits assumed): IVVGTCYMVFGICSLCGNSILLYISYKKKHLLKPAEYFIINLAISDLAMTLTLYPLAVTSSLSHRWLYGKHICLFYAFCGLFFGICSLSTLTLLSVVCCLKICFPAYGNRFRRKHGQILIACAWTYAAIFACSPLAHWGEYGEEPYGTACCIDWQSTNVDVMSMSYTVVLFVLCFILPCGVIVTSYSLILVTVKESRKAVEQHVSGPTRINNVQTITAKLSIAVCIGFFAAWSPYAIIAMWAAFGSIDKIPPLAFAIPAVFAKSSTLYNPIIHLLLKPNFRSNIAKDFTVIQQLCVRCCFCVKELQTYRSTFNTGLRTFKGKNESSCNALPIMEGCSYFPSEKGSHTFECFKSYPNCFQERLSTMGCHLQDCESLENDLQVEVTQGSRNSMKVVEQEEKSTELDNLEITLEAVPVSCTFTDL
As to the kind of experiment: […]GTPgammaS filter binding assay of Gi activation. The note with it: agonist; membrane fraction, 0.6 μM Gi, dark, pH 7.0, 25 °C; covalent (retinylidene Schiff base). Type of test: biochemical.

Consider `CC1=C(/C=C/C(C)=C/C=C/C(C)=C/C=O)C(C)(C)CCC1` [all-trans-retinal], for which the “LC-MS of tryptic peptide with retinal oxime at Cys188” value in test [1] is “Light increased the amount of peptide with retinal oxime at the second cysteine”. For the same compound, the “absorption spectrum of purified pigment and HPLC of extracted retinal” value in test [2] was “the C188T mutant of Opn5L1NC showed an absorption maximum similar to that of WT”; in test [3], “verified the function of Cys188 in the mutant Opn5L1 bearing native N- and C- termini”; in test [4], “Opn5L1 bearing native N- and C- termini showed molecular characteristics indistinguishable”; in test [5], “we concluded that Opn5L1NC directly incorporates all-trans-retinal and not 11-cis-retinal”. Further, a half-maximal response in test [6] (EC50) required 0.62 µM.

The term EC50 denotes the concentration that produces a half-maximal response. Higher therefore signals a less potent agent.
